The source of these data is US20180360025A1, “ARTICLE OF MANUFACTURE AND METHODS FOR INCREASING SURVIVAL OF RED BLOOD CELLS” (Ramot at Tel-Aviv University Ltd., priority 2015, published 2018).

The subject of the assay is CytoD-treated RBC. Briefly: Recovery of CytoD-treated RBCs (Wright Giemsa stain and immunofluorescence). It counts as cell-based, human. The settings on record: CytoD 3 h, immunofluorescence. As for the experimental part: Cytochalasin D (CytoD) is known to inhibit actin polymerization or depolymerization at barbed ends. The recovery effects of Wnts CM in RBCs was tested after incubation with CytoD in order to evaluate the potential effect of Wnt3/5 on polymerized actin in RBCs (FIGS. 12A-B). As show in FIGS. 12A-B, RBCs incubated with a medium containing Cyto D for 3 h, and then with Wnt 3/5 CM (in the absence of CytoD) for 6 h, were stained using two different methods. […] (FIG. 12B).

Turning to `C=C1[C@@H](C)[C@H]2[C@H](Cc3ccccc3)NC(=O)[C@]23[C@H](OC(C)=O)/C=C/[C@@](C)(O)C(=O)[C@@H](C)C/C=C/[C@H]3[C@@H]1O` [CytoD, Cytochalasin D], the “actin state in RBCs after CytoD treatment” value is “aggregates of cytoplasm actin”.
